Test results reported in PMC7913927, “Leishmanicidal Activity of Betulin Derivatives in Leishmania amazonensis; Effect on Plasma and Mitochondrial Membrane Potential, and Macrophage Nitric Oxide and Superoxide Production” (Microorganisms, 2021).
“Also recorded” adds a separate entry of the source.

Tests used:
[1] = system: J774.1 macrophages, healthy or infected with LTB0016, VE98MR or VE2000MM; assay: Nitric oxide (NO) production, Griess reaction; assay type: cell-based, murine; settings: non-infected and infected macrophages; 48 h; 18: 1 and 2 µM; 22: 2 and 4 µM
Experimental: Following a previously described procedure, infected and uninfected macrophage cultures were treated with test compounds to analyze their effect in Leishmania host cell nitric oxide (NO) production. J774.1 macrophages, at the third day of growth, were collected and seeded in flat-bottom 96-well culture plates, at a density of 1 × 10^6 cells mL^−1 (2 × 10^5 macrophages/well), in 200 µL of RPMIc. The plates were incubated for 2 h; once the supernatant was discarded, the medium was replaced with 200 µL of RPMIc mixed with infectious promastigotes in the stationary phase of growth (1 × 10^7 parasites/mL, 2 × 10^6 parasites/well), so that the ratio macrophage: parasites was 1:10 [41]. The plates were then incubated for 4 h, the medium was replaced with fresh RPMIc and the test compounds were applied, according to the different treatment groups. The plates were kept in incubation for 48 h, at 37 °C and 5% CO2.
From the culture supernatants, 50-µL aliquots were recovered and transferred to a new 96-well plate to perform the Griess reaction, 50 µL of Solution 1 [1% sulfanilamide dissolved in 2.5% phosphoric acid] was added, incubated for 5 min at RT and in the dark. […] Finally, the colorimetric reading was performed at 550 nm. […] Levels of NO2^− (expressed as µM of NO2^−) were calculated from a calibration curve constructed with increasing concentrations of sodium nitrite (NaNO2). […]

[2] = system: J774.1 macrophages, healthy or infected with LTB0016, VE98MR or VE2000MM; assay: Superoxide (O2−) production, ferricytochrome c reduction; assay type: cell-based, murine; settings: LTB0016- and VE98MR-infected macrophages; 48 h; 18: 1 and 2 µM
Experimental: The intracellular oxidative burst was evaluated by the production of the superoxide anion O2^−, using the method of reduction of ferricytochrome c, previously described. Macrophages from preceding experiments were used after removing the supernatant; the cells pretreated with compounds or AmB as positive control of the experiment were resuspended in 100 µL of Hanks saline (HBSS: 137 mM NaCl, 5.4 mM KCl, 1 mM MgSO4⋅7H2O, 1.3 mM CaCl2⋅H2O, 0.3 mM Na2HPO4, 0.44 mM KH2PO4, 4.2 mM NaHCO3, 5 mM glucose, pH 7.2) and incubated for 1 h in the presence of 2 mg mL^−1 (160 µM) of cytochrome c type III, at 37 °C and 5% CO2. The supernatant was saved to measure the change in optical density at 550 nm. Three independent experiments were performed in duplicate. The superoxide anion concentration was calculated using the reduced molar extinction coefficient of cytochrome c, 21 mM^−1 cm^−1. Therefore, [O2^−] = (ΔOD/6.3) × 100, where ΔOD is the variation of the optical density (reading-blank), and the result obtained corresponds to the concentration of superoxide anion expressed in nanomoles of O2^− released/2 × 10^5 cells. MLF (5 µM) and amphotericin-B (AmB, 0.1 µM), known to induce NO production in macrophages, were included as controls.

[3] = system: L. (V.) braziliensis promastigotes, reference strain MHOM/BR/LTB300; settings: reference strain MHOM/BR/LTB300; cited from earlier work

C=C(C)C1CCC2(C=NO)CCC3(C)C(CCC4C5(C)CCC(=NO)C(C)(C)C5CCC43C)C12 (stereo not drawn) [Compound 18]
Nitric oxide (NO) production by macrophages [1]: neither 18 nor 22 induced nitric oxide production in infected macrophages; also recorded: not capable of inducing NO production in any of the strains tested; also recorded: not capable of inducing NO production for any of the strains tested | Superoxide production, infected macrophages [2]: induced superoxide production in infected macrophages; also recorded: inducing an oxidative burst and thus increasing O2^− production | active concentration in L. (L.) braziliensis [3]: less than 10 µM
